# Data taken from patent publication US12577206B2 (BRISTOL-MYERS SQUIBB COMPANY, priority 2020, dated 2026).
# Experiments:
# [1] = target: T1, human FPR2 (Homo sapiens, UniProt P25090); experiment: FPR2 cyclic adenosine monophosphate (cAMP) assay; format: cell-based; settings: CHO cells overexpressing human FPR2; forskolin 5 μM; inhibition of cAMP production; HTRF; read-out: hFPR2 cAMP2 EC50
# T1 sequence (P25090 1-351): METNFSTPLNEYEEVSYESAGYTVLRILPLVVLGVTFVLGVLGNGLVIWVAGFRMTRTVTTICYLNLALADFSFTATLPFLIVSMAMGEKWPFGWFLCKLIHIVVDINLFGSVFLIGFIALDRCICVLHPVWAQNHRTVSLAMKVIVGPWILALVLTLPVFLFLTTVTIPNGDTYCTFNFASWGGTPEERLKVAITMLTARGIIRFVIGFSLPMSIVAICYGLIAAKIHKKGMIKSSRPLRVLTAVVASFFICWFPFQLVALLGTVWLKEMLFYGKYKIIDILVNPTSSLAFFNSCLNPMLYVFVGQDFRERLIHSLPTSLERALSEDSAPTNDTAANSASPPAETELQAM
# Summary of the method: (§1)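 CHO/hFPR1 4,000 cells/well, forskolin 10 μM final; CHO/hFPR2 2,000 cells/well, forskolin 5 μM final. IBMX 200 μM, DMSO 1%, DPBS + Ca/Mg + 0.1% BSA, 30 min rt. HTRF cAMP; 4-PL fit.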
# [2] = target: T2, human FPR1 (Homo sapiens, UniProt P21462); experiment: FPR1 cyclic adenosine monophosphate (cAMP) assay; format: cell-based; settings: CHO cells overexpressing human FPR1; forskolin 10 μM; inhibition of cAMP production; HTRF; read-out: hFPR1 cAMP2 EC50
# T2 sequence (P21462 1-350): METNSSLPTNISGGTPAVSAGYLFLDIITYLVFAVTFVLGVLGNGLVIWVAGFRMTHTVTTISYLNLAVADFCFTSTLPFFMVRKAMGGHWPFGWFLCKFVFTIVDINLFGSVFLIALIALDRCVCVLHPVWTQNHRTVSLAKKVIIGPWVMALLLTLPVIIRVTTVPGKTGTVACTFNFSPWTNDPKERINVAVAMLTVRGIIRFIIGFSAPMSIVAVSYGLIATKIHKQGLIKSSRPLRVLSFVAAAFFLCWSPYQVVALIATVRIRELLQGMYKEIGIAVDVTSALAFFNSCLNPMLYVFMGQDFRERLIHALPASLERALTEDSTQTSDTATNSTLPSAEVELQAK
# Summary of the method: as §1
smiles,measurement,setting,value
"COc1cc(F)c(-c2c(NC(=O)c3ccc(OC(F)F)cc3)c(=O)n(-c3nc(C(F)(F)F)ccc3OCC3(C)COC3)n2C)c(F)c1 [Example 358, N-(5-(2,6-Difluoro-4-methoxyphenyl)-1-methyl-2-(3-((3-methyloxetan-3-yl)methoxy)-6-(trifluoromethyl)pyridin-2-yl)-3-oxo-2,3-dihydro-1H-pyrazol-4-yl)-4-(difluoromethoxy)benzamide]",EC50,[1],9 nM
same,EC50,[2],> 10000 nM
"COc1cc(OCC(O)C(F)(F)F)nc(-n2c(=O)c(NC(=O)c3ccc(OC(F)F)cc3)c(-c3c(F)cc(OC)cc3F)n2C)c1 (stereo not shown) [Example 383, N-(5-(2,6-Difluoro-4-methoxyphenyl)-2-(4-methoxy-6-(3,3,3-trifluoro-2-hydroxypropoxy)pyridin-2-yl)-1-methyl-3-oxo-2,3-dihydro-1H-pyrazol-4-yl)-4-(difluoromethoxy)benzamide]",EC50,[1],1 nM
same,EC50,[2],2500 nM
"COc1cc(F)c(-c2c(NC(=O)c3ccc(OC(F)F)cc3)c(=O)n(-c3cccc(C)c3C)n2C)c(F)c1 [Example 3, N-[5-(2,6-difluoro-4-methoxyphenyl)-2-(2,3-dimethylphenyl)-1-methyl-3-oxo-2,3-dihydro-1H-pyrazol-4-yl]-4-(difluoromethoxy)benzamide]",EC50,[1],8 nM
same,EC50,[2],1900 nM
"COc1cc(F)c(-c2c(NC(=O)c3ccc(OC(F)F)cc3)c(=O)n(-c3cc(OC4CCOC4)cc(C)n3)n2C)c(F)c1 (stereo not shown) [Example 320, N-(5-(2,6-Difluoro-4-methoxyphenyl)-1-methyl-2-(6-methyl-4-((tetrahydrofuran-3-yl)oxy)pyridin-2-yl)-3-oxo-2,3-dihydro-1H-pyrazol-4-yl)-4-(difluoromethoxy)benzamide]",EC50,[1],2 nM
same,EC50,[2],990 nM
"COc1cc(F)c(-c2c(NC(=O)c3ccc(Cl)cc3)c(=O)n(-c3ccc(F)cc3)n2C)c(F)c1 [Example 15, 4-chloro-N-[5-(2,6-difluoro-4-methoxyphenyl)-2-(4-fluorophenyl)-1-methyl-3-oxo-2,3-dihydro-1H-pyrazol-4-yl]benzamide]",EC50,[1],30 nM
same,EC50,[2],> 10000 nM
"COc1cc(F)c(-c2c(NC(=O)c3ccc(Cl)cc3)c(=O)n(-c3nc(N4CC(OC(C)C)C4)ccc3C(F)(F)F)n2C)c(F)c1 [Example 141, 4-chloro-N-[5-(2,6-difluoro-4-methoxyphenyl)-1-methyl-3-oxo-2-{6-[3-(propan-2-yloxy)azetidin-1-yl]-3-(trifluoromethyl)pyridin-2-yl}-2,3-dihydro-1H-pyrazol-4-yl]benzamide]",EC50,[1],7 nM
same,EC50,[2],3300 nM
"COc1cc(F)c(-c2c(NC(=O)c3ccc(OC(F)F)cc3)c(=O)n(-c3cc(C)cc(OCCO)n3)n2C)c(F)c1 [Example 331, N-(5-(2,6-Difluoro-4-methoxyphenyl)-2-(6-(2-hydroxyethoxy)-4-methylpyridin-2-yl)-1-methyl-3-oxo-2,3-dihydro-1H-pyrazol-4-yl)-4-(difluoromethoxy)benzamide]",EC50,[1],3 nM
same,EC50,[2],> 10000 nM
"COc1cc(OCCCO)nc(-n2c(=O)c(NC(=O)c3ccc(OC(F)F)cc3)c(-c3c(F)cc(OC)cc3F)n2C)c1 [Example 329, N-(5-(2,6-Difluoro-4-methoxyphenyl)-2-(6-(3-hydroxypropoxy)-4-methoxypyridin-2-yl)-1-methyl-3-oxo-2,3-dihydro-1H-pyrazol-4-yl)-4-(difluoromethoxy)benzamide]",EC50,[1],4 nM
same,EC50,[2],> 10000 nM
"COc1cc(F)c(-c2c(NC(=O)c3ccc(OC(F)F)cc3)c(=O)n(-c3cccc(Cl)c3C)n2C)c(F)c1 [Example 37, N-[2-(3-chloro-2-methylphenyl)-5-(2,6-difluoro-4-methoxyphenyl)-1-methyl-3-oxo-2,3-dihydro-1H-pyrazol-4-yl]-4-(difluoromethoxy)benzamide]",EC50,[1],19 nM
same,EC50,[2],> 10000 nM
"COc1cccc(-n2c(=O)c(NC(=O)c3ccc(OC(F)F)cc3)c(-c3c(F)cc(OC)cc3F)n2C)c1 [Example 112, N-[5-(2,6-difluoro-4-methoxyphenyl)-2-(3-methoxyphenyl)-1-methyl-3-oxo-2,3-dihydro-1H-pyrazol-4-yl]-4-(difluoromethoxy)benzamide]",EC50,[1],5 nM
same,EC50,[2],3 nM
"COc1cc(F)c(-c2c(NC(=O)c3ccc(OC(F)F)cc3)c(=O)n(-c3nc(C4CCC4)ccc3C#N)n2C)c(F)c1 [Example 191, N-(2-(3-cyano-6-cyclobutylpyridin-2-yl)-5-(2,6-difluoro-4-methoxyphenyl)-1-methyl-3-oxo-2,3-dihydro-1H-pyrazol-4-yl)-4-(difluoromethoxy)benzamide]",EC50,[1],2 nM
same,EC50,[2],4800 nM
"COc1ccnc(-n2c(=O)c(NC(=O)c3ccc(OC(F)F)cc3)c(-c3c(F)cc(OC)cc3F)n2C)c1 [Example 59, N-[5-(2,6-difluoro-4-methoxyphenyl)-2-(4-methoxypyridin-2-yl)-1-methyl-3-oxo-2,3-dihydro-1H-pyrazol-4-yl]-4-(difluoromethoxy)benzamide]",EC50,[1],8 nM
same,EC50,[2],> 10000 nM
"COc1cc(F)c(-c2c(NC(=O)c3ccc(OC(F)F)cc3)c(=O)n(-c3nc(N4CCN(C)CC4)ccc3C#N)n2C)c(F)c1 [Example 202, N-{2-[3-cyano-6-(4-methylpiperazin-1-yl)pyridin-2-yl]-5-(2,6-difluoro-4-methoxyphenyl)-1-methyl-3-oxo-2,3-dihydro-1H-pyrazol-4-yl}-4-(difluoromethoxy)benzamide]",EC50,[1],32 nM
same,EC50,[2],2500 nM
"COc1cc(F)c(-c2c(NC(=O)c3ccc(OC(F)F)cc3)c(=O)n(-c3nc(N4CCC[C@H]4C(N)=O)ccc3C(F)(F)F)n2C)c(F)c1 [Example 216, (2S)-1-{6-[3-(2,6-difluoro-4-methoxyphenyl)-4-[4-(difluoromethoxy)benzamido]-2-methyl-5-oxo-2,5-dihydro-1H-pyrazol-1-yl]-5-(trifluoromethyl)pyridin-2-yl}pyrrolidine-2-carboxamide]",EC50,[1],6 nM
same,EC50,[2],> 10000 nM
"COc1cc(OCC2CCCO2)nc(-n2c(=O)c(NC(=O)c3ccc(OC(F)F)cc3)c(-c3c(F)cc(OC)cc3F)n2C)c1 (stereo not shown) [Example 350, N-(5-(2,6-Difluoro-4-methoxyphenyl)-2-(4-methoxy-6-((tetrahydrofuran-2-yl)methoxy)pyridin-2-yl)-1-methyl-3-oxo-2,3-dihydro-1H-pyrazol-4-yl)-4-(difluoromethoxy)benzamide]",EC50,[1],9 nM
same,EC50,[2],> 10000 nM
"COc1cc(F)c(-c2c(NC(=O)c3ccc(OC(F)F)cc3)c(=O)n(-c3nc(N4CCN5CCC[C@@H]5C4)ccc3C(F)(F)F)n2C)c(F)c1 [Example 306, N-(2-{6-[(8aR)-octahydropyrrolo[1,2-a]piperazin-2-yl]-3-(trifluoromethyl)pyridin-2-yl}-5-(2,6-difluoro-4-methoxyphenyl)-1-methyl-3-oxo-2,3-dihydro-1H-pyrazol-4-yl)-4-(difluoromethoxy)benzamide]",EC50,[1],1 nM
same,EC50,[2],2300 nM
"COc1cc(F)c(-c2c(NC(=O)c3ccc(OC(F)(F)F)cc3)c(=O)n(-c3cc(C)ccn3)n2C)c(F)c1 [Example 151, N-[5-(2,6-difluoro-4-methoxyphenyl)-1-methyl-2-(4-methylpyridin-2-yl)-3-oxo-2,3-dihydro-1H-pyrazol-4-yl]-4-(trifluoromethoxy)benzamide]",EC50,[1],13 nM
same,EC50,[2],2700 nM
"COc1cc(N2CCOCC2)nc(-n2c(=O)c(NC(=O)c3ccc(OC(F)F)cc3)c(-c3c(F)cc(OC)cc3F)n2C)c1 [Example 364, N-(5-(2,6-Difluoro-4-methoxyphenyl)-2-(4-methoxy-6-morpholinopyridin-2-yl)-1-methyl-3-oxo-2,3-dihydro-1H-pyrazol-4-yl)-4-(difluoromethoxy)benzamide]",EC50,[1],62 nM
same,EC50,[2],2100 nM
"COc1cc(C2CCN(CCO)CC2)nc(-n2c(=O)c(NC(=O)c3ccc(OC(F)F)cc3)c(-c3c(F)cc(OC)cc3F)n2C)c1 [Example 368, N-(5-(2,6-Difluoro-4-methoxyphenyl)-2-(6-(1-(2-hydroxyethyl)piperidin-4-yl)-4-methoxypyridin-2-yl)-1-methyl-3-oxo-2,3-dihydro-1H-pyrazol-4-yl)-4-(difluoromethoxy)benzamide]",EC50,[1],7 nM
same,EC50,[2],> 10000 nM
"COc1cc(F)c(-c2c(NC(=O)c3ccc(OC(F)F)cc3)c(=O)n(-c3nc(N(C)S(C)(=O)=O)ccc3C(F)(F)F)n2C)c(F)c1 [Example 241, N-[5-(2,6-difluoro-4-methoxyphenyl)-1-methyl-2-[6-(N-methylmethanesulfonamido)-3-(trifluoromethyl)pyridin-2-yl]-3-oxo-2,3-dihydro-1H-pyrazol-4-yl]-4-(difluoromethoxy)benzamide]",EC50,[1],2 nM
same,EC50,[2],> 10000 nM
